According to PubChem BioAssay (NCI):
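Tested at 5 concentrations; 48 h exposure; 96-well plates; endpoints linearly interpolated, else capped at highest concentration. Here, GI50 denotes the concentration required for 50% inhibition of growth. Definition used: TGI = concentration required for complete inhibition of growth.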

Legend:
Assay in all cases: NCI anticancer screen, dose series, 48 h
786-0 renal = tested on: 786-0 renal
A498 renal = tested on: A498 renal
A549 NSCLC = tested on: A549 NSCLC
ACHN renal = tested on: ACHN renal
BT-549 breast = tested on: BT-549 breast
CAKI-1 renal = tested on: CAKI-1 renal
CCRF-CEM leukemia = tested on: CCRF-CEM leukemia
COLO 205 colon = tested on: COLO 205 colon
DU-145 prostate = tested on: DU-145 prostate
EKVX NSCLC = tested on: EKVX NSCLC
HCC-2998 colon = tested on: HCC-2998 colon
HCT-116 colon = tested on: HCT-116 colon
HCT-15 colon = tested on: HCT-15 colon
HL-60(TB) leukemia = tested on: HL-60(TB) leukemia
HOP-62 NSCLC = tested on: HOP-62 NSCLC
HOP-92 NSCLC = tested on: HOP-92 NSCLC
HS 578T breast = tested on: HS 578T breast
HT29 colon = tested on: HT29 colon
IGROV1 ovarian = tested on: IGROV1 ovarian
K-562 leukemia = tested on: K-562 leukemia
KM12 colon = tested on: KM12 colon
LOX IMVI melanoma = tested on: LOX IMVI melanoma
M14 melanoma = tested on: M14 melanoma
MALME-3M melanoma = tested on: MALME-3M melanoma
MCF7 breast = tested on: MCF7 breast
MDA-MB-231 breast = tested on: MDA-MB-231 breast
MDA-MB-435 = tested on: MDA-MB-435
MOLT-4 leukemia = tested on: MOLT-4 leukemia
NCI-H226 lung = tested on: NCI-H226 lung
NCI-H23 lung = tested on: NCI-H23 lung
NCI-H460 lung = tested on: NCI-H460 lung
NCI-H522 lung = tested on: NCI-H522 lung
NCI/ADR-RES ovarian = tested on: NCI/ADR-RES ovarian
OVCAR-3 ovarian = tested on: OVCAR-3 ovarian
OVCAR-4 ovarian = tested on: OVCAR-4 ovarian
OVCAR-5 ovarian = tested on: OVCAR-5 ovarian
OVCAR-8 ovarian = tested on: OVCAR-8 ovarian
PC-3 prostate = tested on: PC-3 prostate
RPMI-8226 leukemia = tested on: RPMI-8226 leukemia
RXF 393 renal = tested on: RXF 393 renal
SF-268 CNS = tested on: SF-268 CNS
SF-295 CNS = tested on: SF-295 CNS
SF-539 CNS = tested on: SF-539 CNS
SK-MEL-2 melanoma = tested on: SK-MEL-2 melanoma
SK-MEL-28 melanoma = tested on: SK-MEL-28 melanoma
SK-MEL-5 melanoma = tested on: SK-MEL-5 melanoma
SK-OV-3 ovarian = tested on: SK-OV-3 ovarian
SN12C renal = tested on: SN12C renal
SNB-19 CNS = tested on: SNB-19 CNS
SNB-75 CNS = tested on: SNB-75 CNS
SR leukemia = tested on: SR leukemia
SW-620 colon = tested on: SW-620 colon
T-47D breast = tested on: T-47D breast
U251 CNS = tested on: U251 CNS
UACC-257 melanoma = tested on: UACC-257 melanoma
UACC-62 melanoma = tested on: UACC-62 melanoma
UO-31 renal = tested on: UO-31 renal
TK-10 renal = tested on: TK-10 renal

## O=C(Nc1ccc(OC(F)(F)Cl)cc1)c1cnc(N2CC[C@@H](O)C2)c(-c2ccn[nH]2)c1
786-0 renal
  GI50: 15 µM
  TGI: 32.8 µM
A498 renal
  GI50: 14.8 µM
  TGI: 31.2 µM
A549 NSCLC
  GI50: 10.5 µM
  TGI: 33.6 µM
ACHN renal
  GI50: 5.03 µM
  TGI: 28.3 µM
BT-549 breast
  GI50: 10.6 µM
  TGI: 24.7 µM
CAKI-1 renal
  GI50: 19.4 µM
  TGI: 63 µM
CCRF-CEM leukemia
  GI50: 11.3 µM
  TGI: 43.2 µM
COLO 205 colon
  GI50: 5.58 µM
  TGI: 19.7 µM
DU-145 prostate
  GI50: 13.2 µM
  TGI: 43.3 µM
EKVX NSCLC
  GI50: 8.63 µM
  TGI: 28.7 µM
HCC-2998 colon
  GI50: 8.41 µM
  TGI: 22.2 µM
HCT-116 colon
  GI50: 10.8 µM
  TGI: 23.9 µM
HCT-15 colon
  GI50: 7.61 µM
  TGI: 24.2 µM
HL-60(TB) leukemia
  GI50: 22.3 µM
  TGI: 54 µM
HOP-62 NSCLC
  GI50: 11.4 µM
  TGI: 28.4 µM
HOP-92 NSCLC
  GI50: 17.3 µM
  TGI: 41.3 µM
HS 578T breast
  GI50: 17.6 µM
  TGI: 49.3 µM
HT29 colon
  GI50: 3.12 µM
  TGI: 12.1 µM
IGROV1 ovarian
  GI50: 15.2 µM
  TGI: 41.1 µM
K-562 leukemia
  TGI: 11 µM
KM12 colon
  GI50: 9.26 µM
  TGI: 24.2 µM
LOX IMVI melanoma
  GI50: 4.84 µM
  TGI: 18.7 µM
M14 melanoma
  GI50: 4.52 µM
  TGI: 18.3 µM
MALME-3M melanoma
  GI50: 12.5 µM
  TGI: 26 µM
MCF7 breast
  GI50: 10 µM
  TGI: 32.8 µM
MDA-MB-231 breast
  GI50: 4.73 µM
  TGI: 21.5 µM
MDA-MB-435
  GI50: 7.3 µM
  TGI: 21.7 µM
MOLT-4 leukemia
  GI50: 9.23 µM
  TGI: 31.7 µM
NCI-H226 lung
  GI50: 11.8 µM
  TGI: 30 µM
NCI-H23 lung
  GI50: 13.6 µM
  TGI: 33.5 µM
NCI-H460 lung
  GI50: 10.1 µM
  TGI: 25.4 µM
NCI-H522 lung
  GI50: 12.6 µM
  TGI: 31.6 µM
NCI/ADR-RES ovarian
  GI50: 24.9 µM
  TGI: 79.6 µM
OVCAR-3 ovarian
  GI50: 15 µM
  TGI: 41.4 µM
OVCAR-4 ovarian
  GI50: 7.07 µM
  TGI: 43.5 µM
OVCAR-5 ovarian
  GI50: 12.9 µM
  TGI: 34.2 µM
OVCAR-8 ovarian
  GI50: 10.8 µM
  TGI: 54.6 µM
PC-3 prostate
  GI50: 16.3 µM
  TGI: 48.4 µM
RPMI-8226 leukemia
  GI50: 9.44 µM
  TGI: 39.9 µM
RXF 393 renal
  GI50: 15.8 µM
  TGI: 35.6 µM
SF-268 CNS
  GI50: 15.4 µM
  TGI: 39.2 µM
SF-295 CNS
  GI50: 10.6 µM
  TGI: 26 µM
SF-539 CNS
  GI50: 13.6 µM
  TGI: 29.1 µM
SK-MEL-2 melanoma
  GI50: 12.9 µM
  TGI: 29.5 µM
SK-MEL-28 melanoma
  GI50: 11.8 µM
  TGI: 24.9 µM
SK-MEL-5 melanoma
  GI50: 10.7 µM
  TGI: 22.7 µM
SK-OV-3 ovarian
  GI50: 20.5 µM
  TGI: 44.9 µM
SN12C renal
  GI50: 12.6 µM
  TGI: 28.9 µM
SNB-19 CNS
  GI50: 12.9 µM
  TGI: 28.2 µM
SNB-75 CNS
  GI50: 12.7 µM
  TGI: 26.5 µM
SR leukemia
  GI50: 10.8 µM
  TGI: 50.9 µM
SW-620 colon
  GI50: 5.84 µM
  TGI: 20.5 µM
T-47D breast
  GI50: 6.12 µM
  TGI: 46.7 µM
U251 CNS
  GI50: 11.8 µM
  TGI: 26.6 µM
UACC-257 melanoma
  GI50: 10.5 µM
  TGI: 22.6 µM
UACC-62 melanoma
  GI50: 5.07 µM
  TGI: 19.5 µM
UO-31 renal
  GI50: 11.9 µM
  TGI: 31 µM

## S=C1SCN(Cc2ccccc2)CN1Cc1ccco1
786-0 renal
  GI50: 3.5 µM
  TGI: 14.4 µM
A498 renal
  GI50: 21.6 µM
  TGI: 69.7 µM
A549 NSCLC
  GI50: 23.3 µM
  TGI: > 100 µM
ACHN renal
  GI50: 4.97 µM
  TGI: 17.3 µM
BT-549 breast
  GI50: 2.91 µM
  TGI: 12.3 µM
CAKI-1 renal
  GI50: 4.81 µM
  TGI: 17.4 µM
CCRF-CEM leukemia
  GI50: 2.75 µM
  TGI: 18.5 µM
COLO 205 colon
  GI50: 4.4 µM
  TGI: 14.3 µM
DU-145 prostate
  GI50: 2.85 µM
  TGI: 9.61 µM
HCC-2998 colon
  GI50: 16.6 µM
  TGI: 34.1 µM
HCT-116 colon
  GI50: 1.47 µM
  TGI: 12.3 µM
HCT-15 colon
  GI50: 2.95 µM
  TGI: 14.4 µM
HL-60(TB) leukemia
  GI50: 5.91 µM
  TGI: > 100 µM
HOP-62 NSCLC
  GI50: 5.33 µM
  TGI: 26.8 µM
HOP-92 NSCLC
  GI50: 2.4 µM
  TGI: 10.9 µM
HS 578T breast
  GI50: 19.7 µM
  TGI: 81.5 µM
HT29 colon
  GI50: 3.17 µM
  TGI: 13.9 µM
IGROV1 ovarian
  GI50: 8.47 µM
  TGI: 26.4 µM
K-562 leukemia
  GI50: 3.62 µM
  TGI: > 100 µM
KM12 colon
  GI50: 1.52 µM
  TGI: 10.6 µM
LOX IMVI melanoma
  GI50: 1.88 µM
  TGI: 10.2 µM
M14 melanoma
  GI50: 4.04 µM
  TGI: 19.3 µM
MALME-3M melanoma
  GI50: 8.44 µM
  TGI: 23.5 µM
MCF7 breast
  GI50: 1.78 µM
  TGI: 16.1 µM
MDA-MB-231 breast
  GI50: 3.17 µM
  TGI: 12.3 µM
MDA-MB-435
  GI50: 1.67 µM
  TGI: 10.4 µM
MOLT-4 leukemia
  GI50: 5.91 µM
  TGI: 76 µM
NCI-H23 lung
  GI50: 5.21 µM
  TGI: 34.9 µM
NCI-H460 lung
  GI50: 5.25 µM
  TGI: 22.3 µM
NCI-H522 lung
  GI50: 2.59 µM
  TGI: 9.92 µM
NCI/ADR-RES ovarian
  GI50: 17.9 µM
  TGI: > 100 µM
OVCAR-3 ovarian
  GI50: 3.98 µM
  TGI: 15 µM
OVCAR-5 ovarian
  GI50: 9.73 µM
  TGI: 21.9 µM
OVCAR-8 ovarian
  GI50: 5.71 µM
  TGI: 32 µM
PC-3 prostate
  GI50: 5.75 µM
  TGI: 61.6 µM
RXF 393 renal
  GI50: 2 µM
  TGI: 5.53 µM
SF-268 CNS
  GI50: 3.59 µM
  TGI: 17.1 µM
SF-295 CNS
  GI50: > 100 µM
  TGI: > 100 µM
SF-539 CNS
  GI50: 2.24 µM
  TGI: 6.68 µM
SK-MEL-2 melanoma
  GI50: 3.04 µM
  TGI: 11.9 µM
SK-MEL-28 melanoma
  GI50: 5.75 µM
  TGI: 20.1 µM
SK-MEL-5 melanoma
  GI50: 11.7 µM
  TGI: 26.9 µM
SK-OV-3 ovarian
  GI50: 12.9 µM
  TGI: 52.7 µM
SN12C renal
  GI50: 4.06 µM
  TGI: 15.3 µM
SNB-19 CNS
  GI50: 35.5 µM
  TGI: > 100 µM
SNB-75 CNS
  GI50: 4.09 µM
  TGI: 21.9 µM
SR leukemia
  GI50: 1.87 µM
  TGI: > 100 µM
SW-620 colon
  GI50: 4.52 µM
  TGI: 18.1 µM
T-47D breast
  GI50: 3.41 µM
  TGI: 21.9 µM
TK-10 renal
  GI50: 5.79 µM
  TGI: 18.8 µM
U251 CNS
  GI50: 21.3 µM
  TGI: 68.3 µM
UACC-257 melanoma
  GI50: 6.28 µM
  TGI: 20.7 µM
UACC-62 melanoma
  GI50: 4.75 µM
  TGI: 18.7 µM
UO-31 renal
  GI50: 4.56 µM
  TGI: 18.7 µM
